Data: patent publication US8399426B2, “Method for treating breast cancer using adenine nucleotide translocator 2 (ANT2) siRNA or ANT2 shRNA” (Bioinfra Inc., priority 2006, dated 2013)

Assays:
[1] = test system: breast cancer cell line MCF7; assay: Sensitivity to doxorubicin, CCK8 assay, MCF7; format: cell-based; details: MCF7 progenitor cells (CD44+/CD24−) vs mixed population
Procedure: The breast cancer cell line MCF7, which has a minor proportion of progenitor cells (CD44+/CD24−), was treated with various concentrations of doxorubicin, widely used for the treatment of breast cancer, after which apoptosis was quantitatively analyzed using a CCK8 assay.

[2] = test system: MDA-MB-231 cell line; assay: Sensitivity to doxorubicin, CCK8 assay, MDA-MB-231; format: cell-based, human; details: MDA-MB-231, doxorubicin 10 μM to zero, 10 hrs, no ANT2 shRNA
Procedure: The MDA-MB-231 cell line which has a predominant proportion of progenitor cells (CD44+/CD24−) was treated with 10-fold serial dilutions of doxorubicin, a widely used anticancer agent starting from 10 μM to zero, followed by incubation (10 hrs). The assay was conducted in the same manner as in Example 6.

[3] = test system: MCF7 cells; assay: Sensitivity to TRAIL, CCK8 assay, MCF7; format: cell-based
Procedure: (§1) As breast cancer cell lines in this experiment, MCF7 resistant to TRAIL, and MDA-MB-231 highly sensitive to TRAIL were employed. MCF7 and MDA-MB-231 were treated with TRAIL at various concentrations after which cell death was analyzed with a CCK8 reagent. The CCK8 assay is a cell viability assay. Specifically, 100 μL of a cell suspension was placed onto each well (1×10^4 cells/well). The cells were treated with 10-fold serial dilutions of TRAIL starting from 1 μg/mL to zero, followed by incubation for 12 hrs. After the addition of 10 μL of the CCK8 reagent, the cells were incubated for a proper time (4 hours) in a CO2 incubator and measured for absorbance at 450 nm to analyze cell death.
However, the introduction of ANT2 shRNA into MCF7 cells induced apoptosis (−25%). […] As for a negative control, it was PBS for TRAIL, and sc shRNA (scrambled shRNA) for ANT2 shRNA.
After being treated with TRAIL alone, ANT2 shRNA alone, and TRAIL and ANT2 shRNA in combination, MCF7 cells, resistant to TRAIL, were examined for apoptosis, and the results are shown in FIG. 24C.
Furthermore, treatment with the p53 inhibitor (pifithrin-alpha) suppressed the up-regulation of TRAIL-mediated apoptosis by ANT2 shRNA, which confirmed that the introduction of ANT2 shRNA induced the expression and activity of p53, leading to an increase in sensitivity to TRAIL. The cell death was quantified using a CCK8 assay, with the use of PBS as a negative control for the p53 inhibitor (FIG. 28).

[4] = test system: DR4, DR5, DcR1 and DcR2; assay: Expression of TRAIL receptors by Western blots, MCF7; format: cell-based; details: MCF7, pre-treatment with p53 inhibitor
Procedure: The breast cancer cell lines MCF7 and MDA-MB-231, which are different in sensitivity to TRAIL from each other, were analyzed for expression levels of the receptors DR4, DR5, DcR1, and DcR2, all binding to TRAIL, by Western blots.
Upon the introduction of ANT2 shRNA, expression patterns of TRAIL receptors were examined, and the results are given in FIG. 26B. […] In T47D and BT474 cell lines, which are known to have TRAIL resistance, the same effects as in MCF7 were observed. That is, the introduction of ANT2 shRNA increased the expression of DR4 and DR5, but decreased the expression of DcR1 and DcR2 (FIG. 26C).
In addition, an experiment was performed to reconfirm that the introduction of ANT2 shRNA induces the expression and activity of p53, thus up-regulating the TRAIL receptors DR4 and DR5.

[5] = test system: breast cancer cells (MDA-MB-231); assay: Direct apoptosis, PI and Annexin V staining, FACS; format: cell-based, human; details: 48 hours from transfection
Procedure: To investigate whether apoptosis could induced directly by ANT2 siRNA, the present inventors performed staining with propidium iodide (PI) and Annexin V.
Particularly, the cells were transfected respectively with ANT2 siRNA and scrambled siRNA, followed by culture for 24-48 hours. The cells were washed with PBS, to which PI and Annexin V were added. After reaction at room temperature for 15 minutes, […] was measured by FACS.

[6] = test system: MDA-MB-231 cells; assay: Sensitivity to TRAIL, CCK8 assay, MDA-MB-231; format: cell-based, human; details: MDA-MB-231, TRAIL at various concentrations, 12 hrs
Procedure: as §1

[7] = test system: breast cancer cell lines T47D and BT474; assay: Western blots of apoptosis-induced proteins (PARP, caspase-8/9/7, Bid, cytochrome C); format: cell-based; details: TRAIL alone
Text: The increased sensitivity to TRAIL was reconfirmed to be attributed to the knockdown of ANT2 by shRNA. […] The empty vector pcDNA was introduced as a negative control for pcDNA-ANT2. When ANT2 shRNA increased sensitivity to TRAIL to induce apoptosis, the concurrent events of intracellular proteins (cleavage of PARP protein, cleavage of caspase-8/9/7, and truncation of Bid proteins) were detected by Western blots.
Because mitochondria play an important role in the regulation of apoptosis, cytochrome C, which is released from mitochondria to cytoplasm, was quantitatively monitored upon the ANT2 shRNA-triggered, TRAIL-mediated apoptosis. The mitochondrial protein COX IV was used as a loading control to guarantee the use of mitochondrial proteins in the same amount. No changes in the pattern of apoptosis-induced proteins were observed when TRAIL was used alone. […] These changes of intracellular protein patterns confirmed that ANT2 shRNA enhanced TRAIL-mediated apoptosis.

[8] = test system: breast cancer cell lines T47D and BT474; assay: Sensitivity to TRAIL, CCK8 assay, T47D and BT474; format: cell-based; details: T47D and BT474, TRAIL alone
Text: The same results as MCF7 were detected from the breast cancer cell lines T47D and BT474, both known to be resistant to TRAIL (FIG. 25A). For this, a CCK8 assay was employed to quantify the apoptosis.

[9] = test system: MCF7 tumor; assay: In vivo tumor growth of MCF7 transplanted into nude mice; RT-PCR of TRAIL receptors in tumors; parameters: species or system Balb/c nude mice; details: TRAIL alone, 10 mg/kg intraperitoneally, three treatments over 45 days
Procedure: The breast cancer cell line MCF7 resistant to TRAIL was transplanted into immunedeficient Balb/c nude mice. When a tumor grew to a volume of 100 mm^3, they were treated with ANT2 shRNA and TRAIL. In this regard, TRAIL was intraperitoneally injected (10 mg/kg) while ANT2 shRNA was directly injected into the tumor (100 μg; supplemented 200 μl Lipofectamine™2000). At this time, Lipofectamine™2000 was used to deliver ANT2 shRNA into tumor cells. After three treatments over 45 days, the size of tumor was monitored. A same volume of PBS and sc shRNA was used as respective negative controls for TRAIL and […]. On 45th day, the animal models were subjected to euthanasia and the tumors were excised.

COc1cccc2c1C(=O)c1c(O)c3c(c(O)c1C2=O)C[C@@](O)(C(=O)CO)C[C@@H]3O[C@H]1C[C@H](N)[C@H](O)[C@H](C)O1 [doxorubicin]
sensitivity to doxorubicin [1]: less sensitive | sensitivity to doxorubicin [2]: neither progenitor cells (CD44+/CD24−) nor the non-progenitor cells were sensitive

Cc1ccc(C(=O)Cn2c3c(sc2=N)CCCC3)cc1 [pifithrin-alpha, reference compound]
up-regulation of TRAIL-mediated apoptosis by ANT2 shRNA ([3]; MCF7, treatment with p53 inhibitor, CCK8): suppressed | up-regulation of DR4 and DR5 by ANT2 shRNA [4]: suppressed

ANT2 siRNA-2: ANT2 siRNA for comparison, SEQ ID NO: 14, 5′-CUGACAUCAUGUACACAGG-3′ (listed as RNA, chemistry not given here)
apoptosis, comparison among ANT2 siRNA, ANT2 siRNA-2 and ANT2 siRNA-3 [5]: consistent

ANT2 siRNA-3: ANT2 siRNA for comparison, SEQ ID NO: 15, 5′-GAUUGCUCGUGAUGAAGGA-3′ (listed as RNA, chemistry not given here)
apoptosis, comparison among ANT2 siRNA, ANT2 siRNA-2 and ANT2 siRNA-3 [5]: consistent

B1: TRAIL: TRAIL/apo2 ligand, a member of tumor necrosis factor, can selectively kill cancer cells (protein, UniProt P50591 1-281, looked up)
Tumor necrosis factor ligand …: MAMMEVQGGPSLGQTCVLIVIFTVLLQSLCVAVTYVYFTNELKQMQDKYSKSGIACFLKEDDSYWDPNDEESMNSPCWQVKWQLRQLVRKMILRTSEETISTVQEKQQNISPLVRERGPQRVAAHITGTRGRSNTLSSPNSKNEKALGRKINSWESSRSGHSFLSNLHLRNGELVIHEKGFYYIYSQTYFRFQEEIKENTKNDKQMVQYIYKYTSYPDPILLMKSARNSCWSKDAEYGLYSIYQGGIFELKENDRIFVSVTNEHLIDMDHEASFFGAFLVG
apoptosis ([3]; MCF7, TRAIL 100 ng/mL): not induced to undergo apoptosis | TRAIL-mediated apoptosis ([3]; MCF7, TRAIL at various concentrations, 12 hrs): did not work | TRAIL-mediated apoptosis [6]: induced | changes in the pattern of apoptosis-induced proteins [7]: No changes | response to TRAIL [8]: resistant | tumor growth [9]: no significant influences
